Among the data in US8741934B2, “Inhibitors of ion channels” (Pfizer Limited, priority 2007, dated 2014) are IC50 values, retold here.

The assay deals with T1, hSCN3A sodium channels (Homo sapiens, UniProt Q9NY46).
T1 construct: expressed in transfected cells
Description: hSCN3A electrophysiology, whole-cell patch-clamp or PatchXpress 7000, estimated IC-50 (Table B). It is filed as cell-based. The conditions noted are these: estimated IC-50; hSCN3A cells, whole-cell patch-clamp or PatchXpress 7000; read-out: SCN3A EIC-50. In short, it runs like this: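 A 20 msec test pulse to 0 mV followed an 8 sec conditioning prepulse at each cell's measured V1/2. Room-temperature (22-24° C) recordings on HEK cells stably expressing the channel, conventional or PatchXpress.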

Structures are written as SMILES.

T1 sequence (Q9NY46 whole entry): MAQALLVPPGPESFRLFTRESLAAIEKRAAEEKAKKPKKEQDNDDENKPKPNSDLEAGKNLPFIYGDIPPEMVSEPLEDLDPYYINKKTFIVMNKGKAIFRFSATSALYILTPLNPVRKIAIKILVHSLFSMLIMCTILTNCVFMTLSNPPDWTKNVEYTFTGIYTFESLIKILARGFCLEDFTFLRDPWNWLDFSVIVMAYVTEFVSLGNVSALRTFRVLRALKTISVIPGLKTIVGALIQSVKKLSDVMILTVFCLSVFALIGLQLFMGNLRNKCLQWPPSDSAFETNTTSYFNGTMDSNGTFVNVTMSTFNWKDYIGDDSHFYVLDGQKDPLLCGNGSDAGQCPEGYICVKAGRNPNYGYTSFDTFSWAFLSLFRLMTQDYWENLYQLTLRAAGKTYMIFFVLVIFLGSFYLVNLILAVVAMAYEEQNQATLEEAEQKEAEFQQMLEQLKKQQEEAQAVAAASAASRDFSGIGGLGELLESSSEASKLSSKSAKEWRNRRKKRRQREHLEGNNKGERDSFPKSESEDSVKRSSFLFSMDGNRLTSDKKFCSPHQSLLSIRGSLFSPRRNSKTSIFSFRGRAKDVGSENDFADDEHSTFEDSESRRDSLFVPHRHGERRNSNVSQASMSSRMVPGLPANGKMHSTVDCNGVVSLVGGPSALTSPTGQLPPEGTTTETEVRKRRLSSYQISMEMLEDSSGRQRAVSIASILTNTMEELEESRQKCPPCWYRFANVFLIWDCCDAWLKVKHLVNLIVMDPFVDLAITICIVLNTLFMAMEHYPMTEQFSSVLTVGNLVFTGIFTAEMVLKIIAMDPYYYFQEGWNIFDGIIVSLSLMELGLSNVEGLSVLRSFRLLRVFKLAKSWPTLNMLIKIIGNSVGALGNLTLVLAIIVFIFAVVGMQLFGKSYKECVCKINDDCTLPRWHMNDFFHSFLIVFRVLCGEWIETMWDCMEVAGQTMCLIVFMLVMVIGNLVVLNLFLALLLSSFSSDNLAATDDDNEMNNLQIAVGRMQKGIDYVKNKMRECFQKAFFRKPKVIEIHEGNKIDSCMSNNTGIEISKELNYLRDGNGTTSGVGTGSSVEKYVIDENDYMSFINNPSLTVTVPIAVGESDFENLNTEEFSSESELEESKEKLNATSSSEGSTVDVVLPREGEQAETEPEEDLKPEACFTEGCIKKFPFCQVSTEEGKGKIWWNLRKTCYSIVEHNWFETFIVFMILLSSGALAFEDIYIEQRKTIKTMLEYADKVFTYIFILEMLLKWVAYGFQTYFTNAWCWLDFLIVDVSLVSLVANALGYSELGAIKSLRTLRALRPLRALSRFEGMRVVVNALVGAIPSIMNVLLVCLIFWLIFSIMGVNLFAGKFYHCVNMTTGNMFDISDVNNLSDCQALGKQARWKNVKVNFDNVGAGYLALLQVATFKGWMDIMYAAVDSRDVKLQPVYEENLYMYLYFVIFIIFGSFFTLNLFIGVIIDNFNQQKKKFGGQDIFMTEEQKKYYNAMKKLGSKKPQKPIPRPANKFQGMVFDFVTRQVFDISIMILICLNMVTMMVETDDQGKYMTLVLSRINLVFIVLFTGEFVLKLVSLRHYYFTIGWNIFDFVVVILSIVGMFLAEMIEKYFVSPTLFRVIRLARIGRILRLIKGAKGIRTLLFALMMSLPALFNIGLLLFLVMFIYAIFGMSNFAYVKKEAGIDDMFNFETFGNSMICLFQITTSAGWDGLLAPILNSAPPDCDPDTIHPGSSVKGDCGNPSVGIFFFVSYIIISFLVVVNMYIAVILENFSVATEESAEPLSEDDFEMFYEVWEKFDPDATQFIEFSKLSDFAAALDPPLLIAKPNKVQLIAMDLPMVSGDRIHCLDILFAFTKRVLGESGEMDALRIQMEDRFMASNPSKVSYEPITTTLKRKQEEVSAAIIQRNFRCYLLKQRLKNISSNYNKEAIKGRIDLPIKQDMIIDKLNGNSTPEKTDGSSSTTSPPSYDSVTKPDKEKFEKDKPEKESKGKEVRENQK

For `O=C(c1ccc(S(=O)(=O)Nc2nccs2)cc1)N(Cc1ccccc1)[C@H]1CCCC[C@H]1CO` [Example 245, N-benzyl-N-[(1S,2R)-2-(hydroxymethyl)cyclohexyl]-4-[(1,3-thiazol-2-ylamino)sulfonyl]benzamide], the IC50 is 2220 nM.
Under `O=C(c1ccc(S(=O)(=O)Nc2nccs2)cc1)N1CC[C@@H](Oc2ccccc2Cl)C1` [Example 247, 4-{[(3R)-3-(2-chlorophenoxy)pyrrolidin-1-yl]carbonyl}-N-1,3-thiazol-2-yl-benzenesulfonamide] stands > 1000 nM; under `Cc1ccc(OC2CCCN(C(=O)c3ccc(S(=O)(=O)Nc4nccs4)cc3)C2)cc1` (stereo not drawn) [Example 249, 4-{[3-(4-mMethylphenoxy)piperidin-1-yl]carbonyl}-N-1,3-thiazol-2-yl-benzenesulfonamide], 1660 nM.
The value for `Cc1ccc(C2(O)CCN(C(=O)c3ccc(S(=O)(=O)Nc4nccs4)cc3)CC2)cc1` [Example 252, 4-{[4-Hydroxy-4-(4-methylphenyl)piperidin-1-yl]carbonyl}-N-1,3-thiazol-2-yl-benzenesulfonamide] was 2110 nM.
The value for `COc1ccccc1C1CCCN1C(=O)c1ccc(S(=O)(=O)Nc2nccs2)cc1` (stereo not drawn) [Example 254, 4-{[2-(2-Methoxyphenyl)pyrrolidin-1-yl]carbonyl}-N-1,3-thiazol-2-yl-benzenesulfonamide] was > 1000 nM; that for `CC(O)(CN(C(=O)c1ccc(S(=O)(=O)Nc2nccs2)cc1)C1CCCCC1)c1ccccc1` (stereo not drawn) [Example 257, N-cyclohexyl-N-(2-hydroxy-2-phenylpropyl)-4-[(1,3-thiazol-2-yl-amino)sulfonyl]benzamide] was > 1000 nM.
In the case of `O=C(c1ccc(S(=O)(=O)Nc2nccs2)cc1)N1CCOC(COc2cc(F)cc(F)c2)C1` (stereo not drawn) [Example 262, 4-({2-[(3,5-Difluorophenoxy)methyl]morpholin-4-yl}carbonyl)-N-1,3-thiazol-2-ylbenzenesulfonamide], the IC50 is 6850 nM.
The value for `COc1cccc(CC2CCCN(C(=O)c3ccc(S(=O)(=O)Nc4nccs4)cc3)C2)c1` (stereo not drawn) [Example 263, 4-{[3-(3-Methoxybenzyl)piperidin-1-yl]carbonyl}-N-1,3-thiazol-2-yl-benzenesulfonamide] was 1130 nM; that for `O=C(c1ccc(S(=O)(=O)Nc2nccs2)cc1)N1CCOC(COc2ccc(F)cc2Cl)C1` (stereo not drawn) [Example 266, 4-({2-[(2-Chloro-4-fluorophenoxy)methyl]morpholin-4-yl}carbonyl)-N-1,3-thiazol-2-ylbenzenesulfonamide] was 1670 nM.
Under `O=C(c1ccc(S(=O)(=O)Nc2nccs2)cc1)N1CCCC(Oc2ccccc2)C1` (stereo not drawn) [Example 277, 4-[(3-Phenoxypiperidin-1-yl)carbonyl]-N-1,3-thiazol-2-yl-benzenesulfonamide] stands 2190 nM; under `O=C(c1ccc(S(=O)(=O)Nc2nccs2)cc1)N1CCCC1Cc1cccc(Cl)c1` (stereo not drawn) [Example 279, 4-{[2-(3-Chlorobenzyl)pyrrolidin-1-yl]carbonyl}-N-1,3-thiazol-2-yl-benzenesulfonamide], 2200 nM; under `O=C(NCc1ccc(OC(F)(F)F)cc1)c1ccc(S(=O)(=O)Nc2nccs2)c(Cl)c1` [Example 284, 3-Chloro-4-[(1,3-thiazol-2-ylamino)sulfonyl]-N-[4-(trifluoromethoxy)benzyl]benzamide], 1220 nM.
`O=C(NCc1ccc(OC(F)(F)F)c(F)c1)c1ccc(S(=O)(=O)Nc2nccs2)c(Cl)c1` [Example 286, 3-Chloro-N-[3-fluoro-4-(trifluoromethoxy)benzyl]-4-[(1,3-thiazol-2-yl-amino)sulfonyl]benzamide]: the IC50 is 140 nM.
Under `O=C(NCc1ccc(C(F)(F)F)cc1)c1ccc(S(=O)(=O)Nc2nccs2)c(Cl)c1` [Example 287, 3-Chloro-4-[(1,3-thiazol-2-ylamino)sulfonyl]-N-[4-(trifluoromethyl)benzyl]benzamide] stands 220 nM.
Under `O=C(NCc1ccc(C(F)(F)F)c(F)c1)c1ccc(S(=O)(=O)Nc2nccs2)c(Cl)c1` [Example 289, 3-Chloro-N-[3-fluoro-4-(trifluoromethyl)benzyl]-4-[(1,3-thiazol-2-yl-amino)sulfonyl]benzamide] stands 340 nM; under `O=C(NCc1ccc(F)c(C(F)(F)F)c1)c1ccc(S(=O)(=O)Nc2nccs2)c(Cl)c1` [Example 290, 3-Chloro-N-[4-fluoro-3-(trifluoromethyl)benzyl]-4-[(1,3-thiazol-2-yl-amino)sulfonyl]benzamide], 1390 nM.
The value for `O=C(NCc1ccc(Cl)c(Cl)c1)c1ccc(S(=O)(=O)Nc2nccs2)c(Cl)c1` [Example 291, 3-Chloro-N-(3,4-dichlorobenzyl)-4-[(1,3-thiazol-2-ylamino)sulfonyl]benzamide] was 710 nM; that for `O=C(NCc1ccc(Cl)c(F)c1)c1ccc(S(=O)(=O)Nc2nccs2)c(Cl)c1` [Example 292, 3-Chloro-N-(4-chloro-3-fluorobenzyl)-4-[(1,3-thiazol-2-yl-amino)sulfonyl]benzamide] was 900 nM; that for `O=C(NCc1ccc(F)c(OC(F)(F)F)c1)c1ccc(S(=O)(=O)Nc2nccs2)c(Cl)c1` [Example 293, 3-Chloro-N-[4-fluoro-3-(trifluoromethoxy)benzyl]-4-[(1,3-thiazol-2-yl-amino)sulfonyl]benzamide] was 2320 nM.
As to `O=C(NCc1ccc(F)c(Cl)c1)c1ccc(S(=O)(=O)Nc2nccs2)c(Cl)c1` [Example 294, 3-Chloro-N-(3-chloro-4-fluorobenzyl)-4-[(1,3-thiazol-2-yl-amino)sulfonyl]benzamide], the IC50 was 1840 nM.
`O=C(NCc1ccc(Cl)c(F)c1)c1ccc(S(=O)(=O)Nc2nccs2)c(F)c1` [Example 295, N-(4-chloro-3-fluorobenzyl)-3-fluoro-4-[(1,3-thiazol-2-ylamino)sulfonyl]benzamide]: the IC50 is 220 nM.
The value for `O=C(NCc1cccc(OC(F)(F)F)c1)c1ccc(S(=O)(=O)Nc2nccs2)c(F)c1` [Example 296, 3-Fluoro-4-[(1,3-thiazol-2-ylamino)sulfonyl]-N-[3-(trifluoromethoxy)benzyl]benzamide] was 190 nM; that for `O=C(NCc1ccc(Cl)c(Cl)c1)c1ccc(S(=O)(=O)Nc2nccs2)c(F)c1` [Example 297, N-(3,4-dichlorobenzyl)-3-fluoro-4-[(1,3-thiazol-2-ylamino)sulfonyl]benzamide] was 60 nM.
Under `O=C(NCc1ccc(F)c(F)c1)c1ccc(S(=O)(=O)Nc2nccs2)c(F)c1` [Example 298, N-(3,4-difluorobenzyl)-3-fluoro-4-[(1,3-thiazol-2-ylamino)sulfonyl]benzamide] stands 160 nM; under `O=C(NCc1ccc(F)c(Cl)c1)c1ccc(S(=O)(=O)Nc2nccs2)c(F)c1` [Example 299, N-(3-chloro-4-fluorobenzyl)-3-fluoro-4-[(1,3-thiazol-2-yl-amino)sulfonyl]benzamide], 110 nM; under `O=C(NCc1ccc(F)c(OC(F)(F)F)c1)c1ccc(S(=O)(=O)Nc2nccs2)c(F)c1` [Example 300, 3-Fluoro-N-[4-fluoro-3-(trifluoromethoxy)benzyl]-4-[(1,3-thiazol-2-ylamino)sulfonyl]benzamide], 130 nM.
For the compound `O=C(NCc1ccc(OC(F)(F)F)cc1)c1ccc(S(=O)(=O)Nc2nccs2)c(F)c1` [Example 301, 3-Fluoro-4-[(1,3-thiazol-2-ylamino)sulfonyl]-N-[4-(trifluoromethoxy)benzyl]benzamide], the IC50 is 180 nM.
For the compound `O=C(NCc1cccc(C(F)(F)F)c1)c1ccc(S(=O)(=O)Nc2nccs2)c(F)c1` [Example 302, 3-Fluoro-4-[(1,3-thiazol-2-ylamino)sulfonyl]-N-[3-(trifluoromethyl)benzyl]benzamide], the IC50 was 350 nM.
Regarding `O=C(NCc1ccc(C(F)(F)F)cc1)c1ccc(S(=O)(=O)Nc2nccs2)c(F)c1` [Example 303, 3-Fluoro-4-[(1,3-thiazol-2-ylamino)sulfonyl]-N-[4-(trifluoromethyl)benzyl]benzamide], the IC50 is 140 nM.
Under `O=C(NCc1ccc(C(F)(F)F)c(F)c1)c1ccc(S(=O)(=O)Nc2nccs2)c(F)c1` [Example 304, 3-Fluoro-N-[3-fluoro-4-(trifluoromethyl)benzyl]-4-[(1,3-thiazol-2-yl-amino)sulfonyl]benzamide] stands 70 nM.
Under `O=C(NCc1ccc(OC(F)(F)F)c(F)c1)c1ccc(S(=O)(=O)Nc2nccs2)c(F)c1` [Example 305, 3-Fluoro-N-[3-fluoro-4-(trifluoromethoxy)benzyl]-4-[(1,3-thiazol-2-ylamino)sulfonyl]benzamide] stands 60 nM.
Under `O=C(NCc1ccc(C(F)(F)F)c(Cl)c1)c1ccc(S(=O)(=O)Nc2nccs2)c(F)c1` [Example 306, N-[3-chloro-4-(trifluoromethyl)benzyl]-3-fluoro-4-[(1,3-thiazol-2-ylamino)sulfonyl]benzamide] stands 40 nM; under `Cc1cc(NC(=O)c2ccc(S(=O)(=O)Nc3nccs3)cc2)n(-c2ccccc2)n1` [Example 307, N-(3-methyl-1-phenyl-1H-pyrazol-5-yl)-4-[(1,3-thiazol-2-ylamino)sulfonyl]benzamide], 23700 nM.
Turning to `O=C(Nc1ccn(Cc2ccc(Cl)cc2)n1)c1ccc(S(=O)(=O)Nc2nccs2)cc1` [Example 308, N-[1-(4-chlorobenzyl)-1H-pyrazol-3-yl]-4-[(1,3-thiazol-2-ylamino)sulfonyl]benzamide], the IC50 is 320 nM.
The value for `O=C(NCc1ccc(C(F)(F)F)c(F)c1)c1ccc(S(=O)(=O)Nc2ncc(Cl)s2)c(F)c1` [Example 310, 4-{[(5-Chloro-1,3-thiazol-2-yl)amino]sulfonyl}-3-fluoro-N-[3-fluoro-4-(trifluoromethyl)benzyl]benzamide] was 50 nM; that for `O=C(NCc1ccc(Cl)c(Cl)c1)c1ccc(S(=O)(=O)Nc2ncc(Cl)s2)c(F)c1` [Example 311, 4-{[(5-Chloro-1,3-thiazol-2-yl)amino]sulfonyl}-N-(3,4-dichlorobenzyl)-3-fluorobenzamide] was 60 nM.
